Where no end group is shown, it is not given here.
Legend:
E. faecium (ATCC 700221) = assay: microbe, parasite or virus in culture; details: Gram-positive, vancomycin-resistant; CLSI microdilution, CAMHB, 37 °C, 24 h; highest MIC of three independent experiments in triplicate
Experimental: (§1) Description of the characteristics and growth conditions of various bacterial strains used in the study are provided in the Supporting Information (Table S3). Antibacterial susceptibility testing was carried out using a standard microtiter dilution method recommended by the clinical and laboratory standard institute (CLSI) and measured as a minimum inhibitory concentration (MIC), the lowest peptide concentration that inhibited bacterial growth. Briefly, the overnight grown cultures in the recommended broth for each bacterial strain were diluted in cation-adjusted Mueller Hinton Broth (CAMHB) to give an inoculum of 10^6 colony-forming units (CFU)/mL. A 2-fold serially diluted test peptide solution (100 μL) was added to the microtiter plates. After adding bacterial suspension (100 μL), the plates were incubated at 37 °C for 24 h, and the MICs were determined. The same protocol was used to determine the MICs in the presence of salts and serum except using the media supplemented with various cationic salts (150 mM NaCl, 4.5 mM KCl, 6 mM NH4Cl, 1 mM MgCl2, and 2 mM CaCl2) or 25% FBS. The data was acquired from three independent assays performed in triplicate.
(§2) The bacterial strains employed in this study were obtained from the American Type Culture Collection (ATCC). Each strain was propagated as recommended by the ATCC, and each strain was stored as a frozen glycerol stock at -80°C. A bacterial colony was grown on the appropriate agar as indicated in Table S1 and was used to inoculate the appropriate broth. The culture was incubated at the appropriate conditions, as mentioned in Table S1. Following the incubation, the culture was diluted to an optical density 625 nm (OD625) of 0.1 in cation adjusted Mueller Hinton Broth (CAMHB), which is equivalent to 1 × 10^8 CFU/mL. The culture was further diluted to 1 × 10^6 CFU/mL, which was used to conduct the MIC determination assay. For the S. pneumoniae strains, CAMHB + 2.5% lysed horse blood was required for the assay. The strains with their […]
(§3) Table S3. Description of the characteristics and growth conditions of various bacterial strains

E. faecalis (ATCC 51575) = assay: microbe, parasite or virus in culture; details: Gram-positive, vancomycin-resistant; CLSI microdilution, CAMHB, 37 °C, 24 h; highest MIC of three independent experiments in triplicate
Experimental: as §1, §2, §3

E. faecium (ATCC 27270) = assay: microbe, parasite or virus in culture
Experimental: as §1, §2, §3

[1] = system: S. pneumoniae (ATCC 49619); details: Gram-positive; CLSI microdilution, CAMHB + 2.5% lysed horse blood, 37 °C, 24 h; highest MIC of three independent experiments in triplicate
Outline: (§4)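 In this CLSI-recommended assay, peptides were serially diluted twofold and combined with bacteria at 10^6 CFU/mL in cation-adjusted Mueller Hinton Broth.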

[2] = CD spectroscopy, helicity; format: physicochemical; design: key to Δ[θ]222 induced by TFE / Δ[θ]222 induced by Liposomes: mean residue molar ellipticity, mdeg cm2/(dmol × res); details: for [θ]222 mean residue molar ellipticity, TFE / [θ]222 mean residue molar ellipticity, Liposomes / [θ]222 mean residue molar ellipticity, PBS: CD at 222 nm, 25 °C; for [θ]222 mean residue molar ellipticity, TFE: aqueous buffer containing 50% TFE; for [θ]222 mean residue molar ellipticity, Liposomes / Δ[θ]222 induced by Liposomes: bacterial membrane mimicking liposomes; for [θ]222 mean residue molar ellipticity, Liposomes: peptide:lipid molar ratio 1:1.05; for [θ]222 mean residue molar ellipticity, PBS: phosphate buffer saline pH 7.0; for Δ[θ]222 induced by TFE / Δ[θ]222 induced by Liposomes: difference to PBS; for Δ[θ]222 induced by TFE: 50% TFE; for % of helicity induced by TFE: increase in molar ellipticity at 222 nm in the presence of 50% TFE; for % of helicity induced by Liposomes: increase in molar ellipticity at 222 nm in the presence of liposomes;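 on % of helicity induced by Liposomes: share of the total helicity with liposomes gained over the same peptide in PBS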;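 on % of helicity induced by TFE: share of the total helicity in TFE gained over the same peptide in PBS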
Outline: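 Spectra recorded at 25 °C, 1 mm cell, 190–260 nm, averaged over three scans in 10 mM sodium phosphate (pH 7.2), 50% TFE, or bacterial-mimic liposomes (75 μM lipid), baseline-subtracted. Mean residue molar ellipticity at 222 nm derived; % helicity induced is the percentage increase at 222 nm in TFE or liposomes.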

[3] = system: K. pneumoniae (ATCCBAA-1705); assay: MIC, standard microtiter dilution (CLSI); format: cell-based, Klebsiella pneumoniae; details: broth microdilution (CLSI), CAMHB, 37 °C, 24 h
Outline: as §4

[4] = system: human red blood cells (hRBCs); assay: Hemolytic assay; format: cell-based; details: for decrease in the hemolytic activity on replacing Arg with Lys: 7b vs 7a, 8b vs 8a, HC50, hRBC; for HC50 (concentration at which 50% hemolysis was observed): 2 h, 37 °C
Outline: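 Peptides in 2-fold serial dilutions mixed 1:1 with 4% hRBC suspension in PBS and held 2 h at 37 °C unshaken. Hemoglobin release in supernatant read at 567 nm; % hemolysis scaled between PBS (0%) and 1% Triton X-100 (100%).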

[5] = system: nonresistant and MDR S. pneumoniae; details: Table 2
Outline: as §4

[6] = 10^6 CFU/mL, highest MIC of three independent experiments in triplicate
[7] = hRBC suspension 4% in PBS, hemoglobin release at 567 nm, 1% Triton X-100 = 100%
[8] = value in parentheses (μM), hRBC 4% in PBS, 567 nm

For `CCCCCCCCCC(=O)N[C@@H](Cc1c[nH]c2ccccc12)C(=O)N[C@H](CC(N)=O)C(=O)N[C@@H](CC(=O)O)C(=O)N[C@@H]1C(=O)NCC(=O)N[C@@H](CCCN)C(=O)N[C@@H](CC(=O)O)C(=O)N[C@H](C)C(=O)N[C@@H](CC(=O)O)C(=O)NCC(=O)N[C@H](CO)C(=O)N[C@@H]([C@H](C)CC(=O)O)C(=O)N[C@@H](CC(=O)c2ccccc2N)C(=O)O[C@@H]1C` [daptomycin, reference compound], the “MIC, E. faecium (ATCC 700221)” value (E. faecium (ATCC 700221)) was 6.2 µg/mL, the “MIC, E. faecalis (ATCC 51575)” value (E. faecalis (ATCC 51575)) was 12.5 µg/mL and the “MIC, E. faecium (ATCC 27270)” value (E. faecium (ATCC 27270); Gram-positive, CLSI microdilution, CAMHB, 37 °C, 24 h, highest MIC of three independent experiments in triplicate) was 1.5 µg/mL. For the same compound, the “MIC, S. pneumoniae (ATCC 49619)” value [1] was 12.5 µg/mL.

In the case of KWIKKWIKWWKK-NH2 [7b], the “MIC, E. faecium (ATCC 700221)” value (E. faecium (ATCC 700221)) is reported as 6.2 µg/mL, the “MIC, E. faecalis (ATCC 51575)” value (E. faecalis (ATCC 51575)) is reported as 6.2 µg/mL and the “MIC, E. faecium (ATCC 27270)” value (E. faecium (ATCC 27270); ATCC 27270, 24 h) is reported as 6.2 µg/mL. The “[θ]222 mean residue molar ellipticity, TFE” value [2] was -10800 mdeg cm2/(dmol × res), the “[θ]222 mean residue molar ellipticity, Liposomes” value [2] was -12345 mdeg cm2/(dmol × res) and the “[θ]222 mean residue molar ellipticity, PBS” value [2] was -3016 mdeg cm2/(dmol × res). For the same compound, the “Δ[θ]222 induced by TFE” value [2] was -7784, the “Δ[θ]222 induced by Liposomes” value [2] was -9328 and the “% of helicity induced by TFE” value [2] was 72.06%. For the same compound, the “% of helicity induced by Liposomes” value [2] was 75.56%, the “MIC, K. pneumoniae (ATCCBAA-1705)” value [3, 6] was 25 µg/mL and the “MIC, K. pneumoniae (ATCCBAA-1705)” value ([3]; value in parentheses (μM)) was 14.23 µM. The “decrease in the hemolytic activity on replacing Arg with Lys” value [4] was “approximately 5 fold”, the “HC50 (concentration at which 50% hemolysis was observed)” value [4, 7] was 460 µg/mL and the “HC50 (concentration at which 50% hemolysis was observed)” value [4, 8] was 261.77 µM.

For RWIRRWIRWWRR-NH2 [7a], the “MIC, E. faecium (ATCC 700221)” value (E. faecium (ATCC 700221)) was 6.2 µg/mL, the “MIC, E. faecalis (ATCC 51575)” value (E. faecalis (ATCC 51575)) was 12.5 µg/mL and the “MIC, E. faecium (ATCC 27270)” value (E. faecium (ATCC 27270); ATCC 27270, 24 h) was 6.2 µg/mL. The “[θ]222 mean residue molar ellipticity, TFE” value [2] was -8205 mdeg cm2/(dmol × res), the “[θ]222 mean residue molar ellipticity, Liposomes” value [2] was -11307 mdeg cm2/(dmol × res) and the “[θ]222 mean residue molar ellipticity, PBS” value [2] was -2471 mdeg cm2/(dmol × res). The “Δ[θ]222 induced by TFE” value [2] was -5734, the “Δ[θ]222 induced by Liposomes” value [2] was -8836 and the “% of helicity induced by TFE” value [2] was 69.88%. The “% of helicity induced by Liposomes” value [2] was 78.14%, the “MIC, K. pneumoniae (ATCCBAA-1705)” value [3, 6] was 12.5 µg/mL and the “MIC, K. pneumoniae (ATCCBAA-1705)” value ([3]; value in parentheses (μM)) was 6.49 µM. For the same compound, the “HC50 (concentration at which 50% hemolysis was observed)” value [4, 7] was 90 µg/mL and the “HC50 (concentration at which 50% hemolysis was observed)” value [4, 8] was 46.74 µM.

For KWLKKWLKWWKK-NH2 [8b], the “MIC, E. faecium (ATCC 700221)” value (E. faecium (ATCC 700221)) was 3.1 µg/mL, the “MIC, E. faecalis (ATCC 51575)” value (E. faecalis (ATCC 51575)) was 6.2 µg/mL and the “MIC, E. faecium (ATCC 27270)” value (E. faecium (ATCC 27270); ATCC 27270, 24 h) was 3.1 µg/mL. For the same compound, the “[θ]222 mean residue molar ellipticity, TFE” value [2] was -15887 mdeg cm2/(dmol × res), the “[θ]222 mean residue molar ellipticity, Liposomes” value [2] was -19313 mdeg cm2/(dmol × res) and the “[θ]222 mean residue molar ellipticity, PBS” value [2] was -6387 mdeg cm2/(dmol × res). For the same compound, the “Δ[θ]222 induced by TFE” value [2] was -9499, the “Δ[θ]222 induced by Liposomes” value [2] was -12926 and the “% of helicity induced by TFE” value [2] was 59.79%. The “% of helicity induced by Liposomes” value [2] was 66.92%, the “MIC, nonresistant and MDR S. pneumoniae” value [5] was 12.5 µg/mL and the “MIC, S. pneumoniae (ATCC 49619)” value [1] was 12.5 µg/mL. The “MIC, K. pneumoniae (ATCCBAA-1705)” value [3, 6] was 6.2 µg/mL, the “MIC, K. pneumoniae (ATCCBAA-1705)” value ([3]; value in parentheses (μM)) was 3.53 µM and the “decrease in the hemolytic activity on replacing Arg with Lys” value [4] was “approximately 5 fold”. The HC50 ([4]; abstract, hRBC) was 280 µg/mL and the “HC50 (concentration at which 50% hemolysis was observed)” value [4, 8] was 159.34 µM.

With RWLRRWLRWWRR-NH2 [8a] the “MIC, E. faecium (ATCC 700221)” value (E. faecium (ATCC 700221)) was 3.1 µg/mL, the “MIC, E. faecalis (ATCC 51575)” value (E. faecalis (ATCC 51575)) was 6.2 µg/mL and the “MIC, E. faecium (ATCC 27270)” value (E. faecium (ATCC 27270); ATCC 27270, 24 h) was 6.2 µg/mL. The “[θ]222 mean residue molar ellipticity, TFE” value [2] was -10811 mdeg cm2/(dmol × res), the “[θ]222 mean residue molar ellipticity, Liposomes” value [2] was -15616 mdeg cm2/(dmol × res) and the “[θ]222 mean residue molar ellipticity, PBS” value [2] was -4794 mdeg cm2/(dmol × res). For the same compound, the “Δ[θ]222 induced by TFE” value [2] was -6017, the “Δ[θ]222 induced by Liposomes” value [2] was -10822 and the “% of helicity induced by TFE” value [2] was 55.65%. For the same compound, the “% of helicity induced by Liposomes” value [2] was 69.30%, the “MIC, K. pneumoniae (ATCCBAA-1705)” value [3, 6] was 12.5 µg/mL and the “MIC, K. pneumoniae (ATCCBAA-1705)” value ([3]; value in parentheses (μM)) was 6.49 µM. For the same compound, the “HC50 (concentration at which 50% hemolysis was observed)” value [4, 7] was 45 µg/mL and the “HC50 (concentration at which 50% hemolysis was observed)” value [4, 8] was 23.37 µM.
